Data reported in the NIST ThermoML archive (doi:10.1021/je060486k).
± gives the expanded uncertainty stated by the source.

Assay: cn = amount concentration of the nth substance listed, in mol/dm3
Conditions: 298.15 K; for surface tension liquid-gas: Wilhelmy plate method; for kinematic viscosity / mass density / speed of sound: 101 kPa, Liquid; for kinematic viscosity: Capillary tube (Ostwald / Ubbelohde) method

CCCCCCCC[N+](C)(C)C.[Br-] [octyl trimethyl ammonium bromide] + O
Conditions	kinematic viscosity [m2/s]	mass density [kg/m3]	speed of sound [m/s]	surface tension liquid-gas [mN/m]
c1 = 0.02	8.99e-07 ± 6.1e-09	997.62 ± 0.56	1500.1 ± 3	69.4 ± 0.8
c1 = 0.04	9.033e-07 ± 6.1e-09	998.2 ± 0.56	1503.1 ± 3	63.1 ± 0.8
c1 = 0.06	9.083e-07 ± 6.1e-09	998.73 ± 0.56	1506.3 ± 3	59.5 ± 0.8
c1 = 0.08	9.14e-07 ± 6.2e-09	999.23 ± 0.55	1510 ± 3	54.6 ± 0.8
c1 = 0.1	9.2e-07 ± 6.2e-09	999.68 ± 0.55	1513.1 ± 3	51.1 ± 0.8
c1 = 0.12	9.276e-07 ± 6.3e-09	1000.25 ± 0.55	1516.4 ± 3.1	48.9 ± 0.8
c1 = 0.14	9.355e-07 ± 6.3e-09	1000.79 ± 0.56	1520.3 ± 3.1	46.5 ± 0.8
c1 = 0.16	9.441e-07 ± 6.4e-09	1001.62 ± 0.56	1522.7 ± 3.1	44 ± 0.8
c1 = 0.18	9.534e-07 ± 6.4e-09	1001.9 ± 0.56	1525.8 ± 3.1	41.7 ± 0.8
c1 = 0.2	9.636e-07 ± 6.5e-09	1002.54 ± 0.57	1529.6 ± 3.1	39.8 ± 0.8
c1 = 0.3	1.025e-06 ± 6.9e-09	1005 ± 0.59	1540 ± 3.1	36.4 ± 0.8
c1 = 0.4	1.103e-06 ± 7.4e-09	1008.09 ± 0.61	1546.5 ± 3.1	35.8 ± 0.8
c1 = 0.5	1.2e-06 ± 8e-09	1010.5 ± 0.63	1549.2 ± 3.1	35.5 ± 0.8
c1 = 0.6	1.315e-06 ± 8.7e-09	1013.19 ± 0.65	1552.2 ± 3.1	35.4 ± 0.8
c1 = 0.8	1.598e-06 ± 1e-08	1018.07 ± 0.68	1557.4 ± 3.1	35.2 ± 0.8
c1 = 1	1.953e-06 ± 1.3e-08	1022.98 ± 0.72	1562.7 ± 3.1	35.1 ± 0.8

O [water] + CCCCCCCCCC[N+](C)(C)C.[Br-]
c2 = 0
Conditions	kinematic viscosity [m2/s]	surface tension liquid-gas [mN/m]
–	8.956e-07 ± 6e-09	72.5 ± 0.8

O [water] + CCCCCCCC[N+](C)(C)C.[Br-]
c2 = 0
Conditions	kinematic viscosity [m2/s]	surface tension liquid-gas [mN/m]
–	8.957e-07 ± 6e-09	72.5 ± 0.8

O [water] + CCCCCC[N+](C)(C)C.[Br-]
c2 = 0
Conditions	kinematic viscosity [m2/s]	surface tension liquid-gas [mN/m]
–	8.957e-07 ± 6e-09	72.5 ± 0.8
